The source of these data is patent publication USRE39420E1, “1,2-Diphenylpyrrole derivatives, their preparation and their therapeutic uses” (Sankyo Company, Limited, priority 1996, dated 2006).

In assay [1] the target is T1, Cyclooxygenase-1 from Ram Seminal Vesicle Microsomes (RSVM) (Ovis aries, UniProt P05979).
T1 construct: ram seminal vesicles were homogenised by a blender; from tissue; host or cells: ram seminal vesicles (microsomes)
T1 sequence (P05979 25-600): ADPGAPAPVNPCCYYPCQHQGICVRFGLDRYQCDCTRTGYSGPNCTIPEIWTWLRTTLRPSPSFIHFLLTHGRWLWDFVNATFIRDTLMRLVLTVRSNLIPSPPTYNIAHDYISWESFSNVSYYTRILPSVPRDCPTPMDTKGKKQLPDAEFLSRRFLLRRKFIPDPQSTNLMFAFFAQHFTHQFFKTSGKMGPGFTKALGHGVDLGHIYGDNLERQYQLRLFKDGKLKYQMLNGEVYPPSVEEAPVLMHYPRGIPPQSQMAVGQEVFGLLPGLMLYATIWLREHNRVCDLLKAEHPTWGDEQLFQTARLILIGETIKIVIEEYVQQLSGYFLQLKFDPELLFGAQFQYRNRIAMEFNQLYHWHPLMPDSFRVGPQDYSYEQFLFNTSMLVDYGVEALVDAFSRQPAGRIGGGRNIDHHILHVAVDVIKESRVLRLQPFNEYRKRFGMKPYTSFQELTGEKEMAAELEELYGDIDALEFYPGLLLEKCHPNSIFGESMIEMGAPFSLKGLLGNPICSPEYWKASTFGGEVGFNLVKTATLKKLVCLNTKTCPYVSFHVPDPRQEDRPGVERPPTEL
The assay can be described thus: Inhibitory activity on cyclooxygenase-1 from ram seminal vesicle microsomes (PGE2 ELISA). Type of assay: biochemical. The note with it: PGE2 formation, read-out: Inhibitory Effect on COX-1[IC50(μM)]. The protocol: (§1) In order to prepare cyclooxygenase-1 (COX-1) microsomes, ram seminal vesicles were homogenised by a blender. To prepare cyclooxygenase-2 (COX-2) microsomes, an expression vector which contains the human COX-2 gene was introduced into COS cells. The cells were homogenised by sonication after 66 hours cultivation. Microsomes were then prepared in accordance with conventional methods. Enzyme activity was assayed as follows. The assay mixture contained 10 μl of COX-1 or COX-2 microsomes (5 to 15 μg), 2 μl of sample dissolved in dimethyl sulfoxide, 50 μl of 200 mM Tris (pH 7.6), 10 μl of 20 mM reduced glutathione, 10 μl of 10 mM epinephrine, and 15.5 μl of distilled water. After preincubation at 37° C. for 15 minutes, 2.5 μl of 10 μM arachidonic acid (dissolved in ethanol) were then added to the mixture (final volume of 100 μl) and allowed to react at 37° C. for 30 minutes. The final dimethyl sulfoxide and ethanol concentrations were 2% and 2.5%, respectively. To the reaction mixture were then added 15 μl of ice-cooled 0.2M HCl to stop the reaction, and the mixture was cooled at 4° C. for 5 minutes. 15 μl of a 0.2M aqueous solution of sodium hydroxide were then added to the reaction mixture to neutralise the pH. The amount of PGE2, in the reaction mixture was measured using a commercially available ELISA kit (Cayman). IC50 was calculated from the regression line determined by the inhibition rates of PGE2 formation and the concentrations of the compound.

The target in assay [2] is T2, Human Recombinant Cyclooxygenase-2 (Homo sapiens, UniProt P35354).
T2 construct: made in house; host or cells: COS cells (transient expression; microsomes prepared after 66 hours)
T2 sequence (P35354 18-604): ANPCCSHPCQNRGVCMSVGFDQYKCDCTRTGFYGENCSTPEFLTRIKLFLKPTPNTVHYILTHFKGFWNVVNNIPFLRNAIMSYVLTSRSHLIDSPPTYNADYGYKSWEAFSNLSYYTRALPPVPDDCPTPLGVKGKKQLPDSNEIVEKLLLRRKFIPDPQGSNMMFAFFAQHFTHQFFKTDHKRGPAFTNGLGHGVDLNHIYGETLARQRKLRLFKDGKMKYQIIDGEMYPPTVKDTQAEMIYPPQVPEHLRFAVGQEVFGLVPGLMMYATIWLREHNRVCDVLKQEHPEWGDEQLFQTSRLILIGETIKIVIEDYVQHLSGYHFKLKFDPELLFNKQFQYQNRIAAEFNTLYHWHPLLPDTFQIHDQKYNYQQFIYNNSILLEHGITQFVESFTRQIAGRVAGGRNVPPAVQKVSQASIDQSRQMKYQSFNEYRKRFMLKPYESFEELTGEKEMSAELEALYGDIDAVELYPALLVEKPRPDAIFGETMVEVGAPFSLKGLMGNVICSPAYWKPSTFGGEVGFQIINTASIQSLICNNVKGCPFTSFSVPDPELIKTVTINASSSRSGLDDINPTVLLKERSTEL
Nature of the assay: Inhibitory activity on human recombinant cyclooxygenase-2 microsomes from COS cells (PGE2 ELISA). Type of assay: biochemical. The note with it: for IC50: human recombinant COX-2 microsomes, PGE2 formation, read-out: Inhibitory Effect on COX-2 [IC50 (μM)]. As to the method:
In order to prepare cyclooxygenase-1 (COX-1) microsomes, ram seminal vesicles were homogenised by a blender. To prepare cyclooxygenase-2 (COX-2) microsomes, an expression vector which contains the human COX-2 gene was introduced into COS cells. The cells were homogenised by sonication after 66 hours cultivation. Microsomes were then prepared in accordance with conventional methods.
Enzyme activity was assayed as follows.
as §1, with “The” for “In order to prepare cyclooxygenase-1 (COX-1) microsomes, ram seminal vesicles were homogenised by a blender. To prepare cyclooxygenase-2 (COX-2) microsomes, an expression vector which contains the human COX-2 gene was introduced into COS cells. The cells were homogenised by sonication after 66 hours cultivation. Microsomes were then prepared in accordance with conventional methods. Enzyme activity was assayed as follows. The”

For assay [3], the system named is Carrageenan-induced Paw Edema in rats. Nature of the assay: Carrageenan-induced paw edema test. Type of assay: in vivo, Wistar-Imamichi rats. The note with it: Rattus norvegicus, oral, 3 hours after carrageenan, read-out: Inhibition Rate (%). The gist of the method: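 Male Wistar-Imamichi rats (6 weeks, 110-120 g), fasted 16 h, dosed orally 30 min before subplantar injection of 1% carrageenan into right hind paw. Paw volume measured by plethysmometer before dosing and 3 h after carrageenan; edema intensity = (volume at 3 h/volume before injection) − 1.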
In general terms: Carrageenan injected into the paw causes an acute inflammation.

Usually IC50 stands for the concentration that inhibits the measured activity by half. As for `Cc1ccc(-c2ccccc2)n1-c1ccc(S(N)(=O)=O)cc1` [Compound A, 5-methyl-2-phenyl-1-(4-sulfamoylphenyl)pyrrole, reference compound], the IC50 in assay [1] and in assay [2] was > 100 µM in each case. Also, the inhibition in vivo at 50 mg/kg in assay [3] was 14%.
Take `COc1ccc(-c2cc(C)cn2-c2ccc(S(N)(=O)=O)cc2)cc1` [Example 52, 2-(4-Methoxyphenyl)-4-methyl-1-(4-sulfamoylphenyl)pyrrole]: the 50% inhibitory concentration (IC50) in assay [1] is > 100 µM; in assay [2] it was 0.016 µM. In addition, the “Selectivity (COX-1/COX-2)” value in assay [2] (ratio of IC50 COX-1/COX-2) is on record as >6250. Further, in assay [3], the inhibition in vivo at 50 mg/kg came out at 65%.
